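Test compounds were applied to cells in 96-well plates for 48 hours at 5 doses. GI50 = concentration required for 50% inhibition of growth.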 The source made the active and inactive calls. Rule as the data show it: active = GI50 up to about 1.1 µM and inactive = higher. Where a SMILES comes first, the peptide text is derived from it. [ ]: non-standard residue; d: D form. The star is where a group is joined. Bn2Val = CC(C)[C@@H](C(=O)*)N(Cc1ccccc1)Cc1ccccc1; NH(4-F-benzyl) = Fc1ccc(CN*)cc1; NMeV = CN[C@H](C(=O)O)C(C)C; dNMeA = CN[C@H](C)C(=O)O
Columns and labels:
Assay in all cases: NCI-60 cell line screen, 48 h
[1] = test system: M14
[2] = test system: EKVX
[3] = test system: COLO 205
[4] = test system: NCI-H460
[5] = test system: IGROV-1
[6] = test system: SW-620
[7] = test system: SR
[8] = test system: OVCAR-3
[9] = test system: HCT-116
[10] = test system: MOLT-4
[11] = test system: HOP-62
[12] = test system: SN12C
[13] = test system: SF-295
[14] = test system: HCT-15
[15] = test system: 786-0
[16] = test system: M19-MEL
[17] = test system: MCF7
[18] = test system: HOP-92
[19] = test system: Hs-578T
[20] = test system: DU-145

Row | Structure (SMILES) | GI50 [1] | GI50 [2] | GI50 [3] | GI50 [4] | GI50 [5] | GI50 [6] | GI50 [7] | GI50 [8] | GI50 [9] | GI50 [10] | GI50 [11] | GI50 [12] | GI50 [13] | GI50 [14] [µM] | GI50 [15] | GI50 [16] | GI50 [17] | GI50 [18] | GI50 [19] | GI50 [20]
1 | Brc1ccc2c(c1)C1(c3cc(Br)ccc3-2)c2cc(Br)ccc2-c2ccc(Br)cc21 | > 100 µM (inactive) | > 100 µM (inactive) | > 100 µM (inactive) | > 100 µM (inactive) | > 100 µM (inactive) | > 100 µM (inactive) | > 100 µM (inactive) | > 100 µM (inactive) | > 100 µM (inactive) | > 100 µM (inactive) | > 100 µM (inactive) | > 100 µM (inactive) | > 100 µM (inactive) | > 100 | > 100 µM (inactive) | > 100 µM (inactive) |  |  |  | 
2 | CC1(C)O[C@@H](CO)[C@H]([C@@]23OC[C@H]4OC(C)(C)OC4[C@@H]2OC(C)(C)O3)O1 (stereo partly drawn) | > 100 µM (inactive) | > 100 µM (inactive) | > 100 µM (inactive) | > 100 µM (inactive) | > 100 µM (inactive) | > 100 µM (inactive) | > 100 µM (inactive) | > 100 µM (inactive) | > 100 µM (inactive) | > 100 µM (inactive) | > 100 µM (inactive) | > 100 µM (inactive) | > 100 µM (inactive) | > 100 | > 100 µM (inactive) |  | > 100 µM (inactive) | > 100 µM (inactive) | > 100 µM (inactive) | > 100 µM (inactive)
3 | [O-][n+]1ccccc1Sc1nc(Sc2cccc[n+]2[O-])nc(Sc2cccc[n+]2[O-])n1 | 1.26 µM (inactive) | 2.34 µM (inactive) | 0.386 µM (active) | 1.88 µM (inactive) | 0.54 µM (active) | 0.248 µM (active) | 0.171 µM (active) | 1.58 µM (inactive) | 1.25 µM (inactive) | 0.189 µM (active) | 2.98 µM (inactive) | 1.81 µM (inactive) | 3.14 µM (inactive) | 1.38 | 1.27 µM (inactive) |  | 0.778 µM (active) | 1.28 µM (inactive) | 2.08 µM (inactive) | 3.27 µM (inactive)
4 | Cc1cn(C2CC(n3cncn3)C(C(C)O)O2)c(=O)[nH]c1=O (stereo not drawn) | > 100 µM (inactive) | > 100 µM (inactive) | > 100 µM (inactive) | > 100 µM (inactive) | > 100 µM (inactive) | > 100 µM (inactive) |  | > 100 µM (inactive) | > 100 µM (inactive) | > 100 µM (inactive) |  | > 100 µM (inactive) | > 100 µM (inactive) | > 100 | > 100 µM (inactive) | > 100 µM (inactive) |  | > 100 µM (inactive) |  | 
5 | Nc1ccc(C(=O)N/C(=C\c2cccc([N+](=O)[O-])c2)c2nc3c4c(ccc3[nH]2)C(=O)c2ccccc2C4=O)cc1 | > 100 µM (inactive) | 42.6 µM (inactive) | > 100 µM (inactive) | 21.3 µM (inactive) | 8.39 µM (inactive) | 73.5 µM (inactive) |  | 12.7 µM (inactive) | 22 µM (inactive) | 3.94 µM (inactive) | > 100 µM (inactive) | > 100 µM (inactive) | 14 µM (inactive) | 70.5 | 17.7 µM (inactive) | > 100 µM (inactive) |  | 29.4 µM (inactive) |  | 
6 | COC1C=CC23c4cc5c(cc4C(O)OC2CN(C)C3C1)OCO5 (stereo not drawn) | 0.746 µM (active) | 3.55 µM (inactive) | 1.08 µM (active) | 2.69 µM (inactive) | 4.72 µM (inactive) | 1.59 µM (inactive) | 1.17 µM (inactive) | 1.76 µM (inactive) | 1.07 µM (active) | 1.34 µM (inactive) | 2.54 µM (inactive) | 2.35 µM (inactive) | 1.69 µM (inactive) |  | 1.64 µM (inactive) | 1.52 µM (inactive) |  |  |  | 
7 | C/C(CN1C(=O)c2ccccc2C1=O)=N\NS(C)(=O)=O | > 100 µM (inactive) | > 100 µM (inactive) | > 100 µM (inactive) | > 100 µM (inactive) | > 100 µM (inactive) | > 100 µM (inactive) |  | > 100 µM (inactive) | > 100 µM (inactive) | > 100 µM (inactive) | > 100 µM (inactive) | > 100 µM (inactive) | > 100 µM (inactive) | > 100 | > 100 µM (inactive) | > 100 µM (inactive) |  |  |  | 
8 | O=C(Cc1ccccc1)NN1C(=O)C(Cl)C1c1ccc(O)cc1 (stereo not drawn) | > 100 µM (inactive) | > 100 µM (inactive) | > 100 µM (inactive) | > 100 µM (inactive) | > 100 µM (inactive) | > 100 µM (inactive) | 43.1 µM (inactive) | > 100 µM (inactive) | > 100 µM (inactive) | > 100 µM (inactive) | > 100 µM (inactive) | > 100 µM (inactive) | > 100 µM (inactive) | > 100 | > 100 µM (inactive) | > 100 µM (inactive) |  |  |  | 
9 | O=C1c2c(Cl)c(Cl)c(Cl)c(Cl)c2C(=O)N1CCN(c1c(Cl)ssc1=O)c1c(Cl)ssc1=O | 21.5 µM (inactive) | 32.1 µM (inactive) | 18.2 µM (inactive) | 32.1 µM (inactive) | 46.2 µM (inactive) | 22.5 µM (inactive) | 20 µM (inactive) | 18.7 µM (inactive) | 16.1 µM (inactive) | 10.3 µM (inactive) | > 100 µM (inactive) | 23.4 µM (inactive) | > 100 µM (inactive) | 19.5 | 18.2 µM (inactive) |  | 19.6 µM (inactive) | 20.1 µM (inactive) | > 100 µM (inactive) | 19 µM (inactive)
10 | CCO/C=C\C12CCCC1NC(c1ccccc1)(c1ccccc1)O2 (stereo not drawn) | 22.5 µM (inactive) | 43.9 µM (inactive) |  | 48.8 µM (inactive) | 28 µM (inactive) | 38.4 µM (inactive) |  | 27.9 µM (inactive) | 30.7 µM (inactive) | 19.2 µM (inactive) | 41.5 µM (inactive) | 25.7 µM (inactive) | 32.7 µM (inactive) |  | 32.7 µM (inactive) | 24.7 µM (inactive) |  | 24 µM (inactive) |  | 
11 | COC1=CC(=O)C2C(C1=O)C(c1ccc(Cl)cc1)[C@@H]2C (stereo partly drawn) | 25.7 µM (inactive) | 26.3 µM (inactive) | 35 µM (inactive) | 30.1 µM (inactive) | 55.3 µM (inactive) | 27.4 µM (inactive) |  | 34.6 µM (inactive) | 15.7 µM (inactive) | 31.6 µM (inactive) | 39.1 µM (inactive) |  | 93.1 µM (inactive) | 17.1 | 24.4 µM (inactive) | 33.7 µM (inactive) |  | 24.5 µM (inactive) |  | 
12 | CC(C)[C@H](NC(=O)[C@H](C(C)C)N(Cc1ccccc1)Cc1ccccc1)C(=O)N(C)[C@H](C(=O)N1CCC[C@H]1C(=O)N(C)[C@H](C)C(=O)NCc1ccc(F)cc1)C(C)C (Bn2Val-V[NMeV]P[dNMeA]-{NH(4-F-benzyl)}) | 3.05 µM (inactive) | 3.09 µM (inactive) | 1.74 µM (inactive) | 4 µM (inactive) | 3.19 µM (inactive) | 4.25 µM (inactive) | 2.14 µM (inactive) | 2.88 µM (inactive) | 2.97 µM (inactive) | 2.55 µM (inactive) | 5.47 µM (inactive) | 3.15 µM (inactive) | 3.44 µM (inactive) | 3.79 | 4.23 µM (inactive) |  | 2.72 µM (inactive) | 2.97 µM (inactive) | 4.5 µM (inactive) | 4.88 µM (inactive)
